Source: BindingDB's records for doi:10.1016/j.ejmech.2017.04.042 (Laval University, 2017)

Columns and labels:
[1] = biological target: T1, Cytochrome P450 1B1 (Homo sapiens, UniProt Q16678); test: Inhibition of human CYP1B1 expressed in supersomes using ethoxyresorufin as substrate after 20 mins in presence of NADP by Dixon plot analysis
T1 sequence (Q16678 whole entry): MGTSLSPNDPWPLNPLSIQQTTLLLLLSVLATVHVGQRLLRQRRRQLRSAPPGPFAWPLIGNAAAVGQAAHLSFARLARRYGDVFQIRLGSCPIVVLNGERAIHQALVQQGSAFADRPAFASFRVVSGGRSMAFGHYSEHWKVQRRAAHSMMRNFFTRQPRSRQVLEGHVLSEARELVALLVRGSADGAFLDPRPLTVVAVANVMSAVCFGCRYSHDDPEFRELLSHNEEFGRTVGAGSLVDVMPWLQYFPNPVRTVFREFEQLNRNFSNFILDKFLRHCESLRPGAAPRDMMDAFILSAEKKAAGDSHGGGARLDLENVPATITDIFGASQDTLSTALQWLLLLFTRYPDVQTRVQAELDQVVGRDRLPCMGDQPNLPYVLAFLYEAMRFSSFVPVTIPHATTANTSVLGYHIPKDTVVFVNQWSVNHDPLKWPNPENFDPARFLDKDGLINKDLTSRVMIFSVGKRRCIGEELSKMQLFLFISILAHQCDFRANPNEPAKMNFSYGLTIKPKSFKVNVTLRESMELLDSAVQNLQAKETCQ

[2] = biological target: T2, Cytochrome P450 1A1 (Homo sapiens, UniProt P04798); test: Inhibition of CYP1A1 (unknown origin) expressed in Escherichia coli DH5alpha coexpressing human NADPH-P450 reductase using 7-Ethoxyresorufin as substrate up to 6 mins in presence of NADP+ by spectrofluorometric analysis
T2 sequence (P04798 whole entry): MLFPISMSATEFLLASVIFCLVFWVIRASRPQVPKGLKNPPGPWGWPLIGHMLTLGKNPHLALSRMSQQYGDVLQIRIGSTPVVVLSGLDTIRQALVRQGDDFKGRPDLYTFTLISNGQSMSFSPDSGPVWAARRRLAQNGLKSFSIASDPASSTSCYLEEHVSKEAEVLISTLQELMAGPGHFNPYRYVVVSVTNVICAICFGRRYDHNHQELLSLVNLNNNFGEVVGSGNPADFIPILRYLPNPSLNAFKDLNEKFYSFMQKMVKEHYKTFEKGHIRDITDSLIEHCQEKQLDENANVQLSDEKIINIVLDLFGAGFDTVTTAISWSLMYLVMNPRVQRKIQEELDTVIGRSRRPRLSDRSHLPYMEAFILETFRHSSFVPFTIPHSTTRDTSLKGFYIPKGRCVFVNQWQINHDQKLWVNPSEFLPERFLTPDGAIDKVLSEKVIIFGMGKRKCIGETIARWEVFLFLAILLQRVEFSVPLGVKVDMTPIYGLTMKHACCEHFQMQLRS

[3] = biological target: T1, Cytochrome P450 1B1; test: Inhibition of CYP1B1 (unknown origin) expressed in Escherichia coli DH5alpha coexpressing human NADPH-P450 reductase using 7-Ethoxyresorufin as substrate up to 6 mins in presence of NADP+ by spectrofluorometric analysis
[4] = biological target: T3, Cytochrome P450 1A2 (Homo sapiens, UniProt P05177); test: ChEBML_1684878
T3 sequence (P05177 whole entry): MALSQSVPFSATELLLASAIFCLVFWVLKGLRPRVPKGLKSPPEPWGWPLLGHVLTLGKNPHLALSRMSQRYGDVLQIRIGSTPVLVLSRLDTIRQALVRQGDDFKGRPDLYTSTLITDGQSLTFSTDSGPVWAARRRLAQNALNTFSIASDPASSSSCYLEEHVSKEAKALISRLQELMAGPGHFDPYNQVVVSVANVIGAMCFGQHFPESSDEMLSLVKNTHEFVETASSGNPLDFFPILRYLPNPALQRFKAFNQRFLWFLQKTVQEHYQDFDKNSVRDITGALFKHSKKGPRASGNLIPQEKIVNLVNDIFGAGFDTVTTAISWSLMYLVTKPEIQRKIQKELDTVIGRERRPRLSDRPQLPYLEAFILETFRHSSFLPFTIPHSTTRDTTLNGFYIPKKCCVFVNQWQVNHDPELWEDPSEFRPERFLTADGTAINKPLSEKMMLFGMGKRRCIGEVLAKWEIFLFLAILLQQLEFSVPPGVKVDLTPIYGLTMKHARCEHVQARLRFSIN
Procedure: Competitive inhibition of human liver microsomes CYP1A2 expressed in supersomes coexpressing NADPH-CYP reductase using 7-Ethoxyresorufin as substrate measured every 5 mins for 30 mins in presence of NADPH by fluorescence assay

Structure (SMILES) | Ki [1] | IC50 [2] | IC50 [3] | IC50 [4]
C[C@]12CC[C@H]3[C@@H](CCC4=CC(=O)CC[C@@]43C)[C@@H]1CC[C@@H]2O [Testosterone, 1] | 412000 nM |  |  | 
N#C[Se]Cc1cccc(C[Se]C#N)c1 |  | 100 nM | 130 nM | 200 nM
